From patent publication US9968716B2, “Drug-eluting stent graft” (Ono Pharmaceutical Co., Ltd., priority 2013, dated 2018)
Marks after values point to notes of the source that are not given here.

How the values were obtained:
[1] = tested on: normal human aortic smooth muscle cells (AoSMCs); assay: Promotion of cAMP production in AoSMC culture; type: cell-based; conditions: Ao-SMCs, 72 hours of culture
Protocol: Cells (produceed by Lonza, purchased from Takara Bio Inc., product name: normal human aortic smooth muscle cells (AoSMCs), product code: CC-2571) were cultured in a medium (produced by Lonza, purchased from Takara Bio Inc., product name: smooth muscle cell medium kit-2 (5% FBS), SmGM™-2 Bullet Kit™, product code: CC-3182) for 72 hours. To the culture medium at the number of cells of 4.0×10^5 cells which was rendered to be serum free, Compound 1 dissolved in DMSO was added so as to be 100 nM or 1000 nM. As a control, the same amount of DMSO was added to the culture medium. After 72 hours of culture, the supernatant was recovered and cAMP in the culture medium was measured with the cAMP EIA kit Code. 581001.

[2] = tested on: NHDFs and HUVECs; assay: Induction of internal regenerating factors in co-culture with NHDFs and HUVECs; type: cell-based, human

For `O=C(O)COc1cccc2c1CCC=C2CCO/N=C(\c1ccccc1)c1cccnc1` [Compound 1, (E)-[5-[2-[1-phenyl-1-(3-pyridyl)methylidenaminoxy]ethyl]-7,8-dihydronaphthalen-1-yloxy]acetic acid], the “cAMP in the culture medium, Average” value ([1]; 100 nM) was 50.6* nM, the “cAMP in the culture medium, Average” value ([1]; 1000 nM) was 105.4* nM and the “induction of internal regenerating factors (HGF, VEGF, EGF, IGF-1, SDF-1, G-CSF)” value [2] was “induce”.
